This note sets out measurements from patent US9340590B2 (priority 2011, dated 2016).

Common to all, as to assay: cell-based
The target of one test is hNav1.7 (Homo sapiens, UniProt Q15858). Type of test: cell-based. To be noted: IonWorks Quattro, use-dependent protocol, hNav1.7; read-out: IWQ Use Nav1.7.
Another test concerns the target hNav1.5 (Homo sapiens, UniProt Q14524). To be noted: IonWorks Quattro, use-dependent protocol, hNav1.5; read-out: IWQ Use Nav1.5.
A further test deals with hNav1.3 (Homo sapiens, UniProt Q9NY46). To be noted: IonWorks Quattro, use-dependent protocol, hNav1.3; read-out: IWQ Use Nav1.3.

SMILES strings stand for the structures. Positions of bridges follow the written chain, without caps; N, C: chain ends. Non-standard residues stand in square brackets, D forms with d. Residues, ends and D or L forms follow the SMILES beside them. Cit = NC(=O)NCCC[C@H](N)C(=O)O; Nva = CCC[C@H](N)C(=O)O Bounds are passed on as bounds.

Chain of hNav1.3 (Q9NY46 whole entry, looked up): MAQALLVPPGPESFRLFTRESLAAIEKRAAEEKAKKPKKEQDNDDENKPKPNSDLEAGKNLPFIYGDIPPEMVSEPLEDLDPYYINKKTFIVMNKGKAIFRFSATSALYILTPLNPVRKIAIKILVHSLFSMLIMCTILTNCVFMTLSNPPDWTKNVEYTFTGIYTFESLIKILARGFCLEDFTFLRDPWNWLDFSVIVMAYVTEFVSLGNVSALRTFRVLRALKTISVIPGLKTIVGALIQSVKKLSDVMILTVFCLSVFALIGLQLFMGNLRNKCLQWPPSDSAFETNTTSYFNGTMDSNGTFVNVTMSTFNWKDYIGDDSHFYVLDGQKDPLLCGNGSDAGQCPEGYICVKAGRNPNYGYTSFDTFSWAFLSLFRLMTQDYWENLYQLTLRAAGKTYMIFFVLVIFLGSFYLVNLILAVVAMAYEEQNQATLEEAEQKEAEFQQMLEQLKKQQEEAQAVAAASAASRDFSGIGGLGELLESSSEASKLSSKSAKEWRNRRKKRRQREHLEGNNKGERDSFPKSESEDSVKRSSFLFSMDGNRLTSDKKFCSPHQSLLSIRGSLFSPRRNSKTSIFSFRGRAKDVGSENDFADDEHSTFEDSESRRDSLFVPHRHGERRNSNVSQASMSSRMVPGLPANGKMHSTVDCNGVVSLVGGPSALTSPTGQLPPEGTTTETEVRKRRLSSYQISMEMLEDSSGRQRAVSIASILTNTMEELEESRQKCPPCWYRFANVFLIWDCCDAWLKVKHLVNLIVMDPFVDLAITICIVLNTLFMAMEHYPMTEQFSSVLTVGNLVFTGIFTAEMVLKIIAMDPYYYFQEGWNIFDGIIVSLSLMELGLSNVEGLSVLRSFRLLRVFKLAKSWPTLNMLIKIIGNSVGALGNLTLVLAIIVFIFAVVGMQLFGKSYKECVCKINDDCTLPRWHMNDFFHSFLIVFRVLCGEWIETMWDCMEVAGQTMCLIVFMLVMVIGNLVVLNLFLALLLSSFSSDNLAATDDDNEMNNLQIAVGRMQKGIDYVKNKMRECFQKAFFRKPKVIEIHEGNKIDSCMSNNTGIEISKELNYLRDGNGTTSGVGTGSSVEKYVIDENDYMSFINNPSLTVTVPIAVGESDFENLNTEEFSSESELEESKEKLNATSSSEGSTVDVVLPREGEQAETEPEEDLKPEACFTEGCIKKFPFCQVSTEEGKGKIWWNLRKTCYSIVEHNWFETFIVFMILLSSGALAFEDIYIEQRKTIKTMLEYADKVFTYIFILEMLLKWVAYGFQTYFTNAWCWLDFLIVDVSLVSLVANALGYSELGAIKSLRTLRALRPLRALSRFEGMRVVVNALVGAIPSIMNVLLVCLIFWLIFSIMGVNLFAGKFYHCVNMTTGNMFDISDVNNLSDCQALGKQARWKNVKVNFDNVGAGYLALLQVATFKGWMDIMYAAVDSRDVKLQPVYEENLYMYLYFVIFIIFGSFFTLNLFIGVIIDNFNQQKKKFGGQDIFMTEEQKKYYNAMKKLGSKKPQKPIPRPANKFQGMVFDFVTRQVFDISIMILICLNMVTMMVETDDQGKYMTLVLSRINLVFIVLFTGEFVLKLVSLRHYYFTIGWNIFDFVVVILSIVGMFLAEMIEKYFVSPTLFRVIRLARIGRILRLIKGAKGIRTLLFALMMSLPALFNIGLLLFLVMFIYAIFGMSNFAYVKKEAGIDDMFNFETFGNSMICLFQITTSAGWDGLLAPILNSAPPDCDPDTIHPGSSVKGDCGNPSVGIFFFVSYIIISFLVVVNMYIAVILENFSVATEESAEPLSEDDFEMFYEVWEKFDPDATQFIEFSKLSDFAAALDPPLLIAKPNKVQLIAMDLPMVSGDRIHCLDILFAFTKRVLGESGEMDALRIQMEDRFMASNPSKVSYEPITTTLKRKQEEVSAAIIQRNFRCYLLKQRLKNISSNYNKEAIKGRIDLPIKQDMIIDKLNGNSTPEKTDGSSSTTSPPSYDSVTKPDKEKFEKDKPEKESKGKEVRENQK
Chain of hNav1.5 (Q14524 whole entry, looked up): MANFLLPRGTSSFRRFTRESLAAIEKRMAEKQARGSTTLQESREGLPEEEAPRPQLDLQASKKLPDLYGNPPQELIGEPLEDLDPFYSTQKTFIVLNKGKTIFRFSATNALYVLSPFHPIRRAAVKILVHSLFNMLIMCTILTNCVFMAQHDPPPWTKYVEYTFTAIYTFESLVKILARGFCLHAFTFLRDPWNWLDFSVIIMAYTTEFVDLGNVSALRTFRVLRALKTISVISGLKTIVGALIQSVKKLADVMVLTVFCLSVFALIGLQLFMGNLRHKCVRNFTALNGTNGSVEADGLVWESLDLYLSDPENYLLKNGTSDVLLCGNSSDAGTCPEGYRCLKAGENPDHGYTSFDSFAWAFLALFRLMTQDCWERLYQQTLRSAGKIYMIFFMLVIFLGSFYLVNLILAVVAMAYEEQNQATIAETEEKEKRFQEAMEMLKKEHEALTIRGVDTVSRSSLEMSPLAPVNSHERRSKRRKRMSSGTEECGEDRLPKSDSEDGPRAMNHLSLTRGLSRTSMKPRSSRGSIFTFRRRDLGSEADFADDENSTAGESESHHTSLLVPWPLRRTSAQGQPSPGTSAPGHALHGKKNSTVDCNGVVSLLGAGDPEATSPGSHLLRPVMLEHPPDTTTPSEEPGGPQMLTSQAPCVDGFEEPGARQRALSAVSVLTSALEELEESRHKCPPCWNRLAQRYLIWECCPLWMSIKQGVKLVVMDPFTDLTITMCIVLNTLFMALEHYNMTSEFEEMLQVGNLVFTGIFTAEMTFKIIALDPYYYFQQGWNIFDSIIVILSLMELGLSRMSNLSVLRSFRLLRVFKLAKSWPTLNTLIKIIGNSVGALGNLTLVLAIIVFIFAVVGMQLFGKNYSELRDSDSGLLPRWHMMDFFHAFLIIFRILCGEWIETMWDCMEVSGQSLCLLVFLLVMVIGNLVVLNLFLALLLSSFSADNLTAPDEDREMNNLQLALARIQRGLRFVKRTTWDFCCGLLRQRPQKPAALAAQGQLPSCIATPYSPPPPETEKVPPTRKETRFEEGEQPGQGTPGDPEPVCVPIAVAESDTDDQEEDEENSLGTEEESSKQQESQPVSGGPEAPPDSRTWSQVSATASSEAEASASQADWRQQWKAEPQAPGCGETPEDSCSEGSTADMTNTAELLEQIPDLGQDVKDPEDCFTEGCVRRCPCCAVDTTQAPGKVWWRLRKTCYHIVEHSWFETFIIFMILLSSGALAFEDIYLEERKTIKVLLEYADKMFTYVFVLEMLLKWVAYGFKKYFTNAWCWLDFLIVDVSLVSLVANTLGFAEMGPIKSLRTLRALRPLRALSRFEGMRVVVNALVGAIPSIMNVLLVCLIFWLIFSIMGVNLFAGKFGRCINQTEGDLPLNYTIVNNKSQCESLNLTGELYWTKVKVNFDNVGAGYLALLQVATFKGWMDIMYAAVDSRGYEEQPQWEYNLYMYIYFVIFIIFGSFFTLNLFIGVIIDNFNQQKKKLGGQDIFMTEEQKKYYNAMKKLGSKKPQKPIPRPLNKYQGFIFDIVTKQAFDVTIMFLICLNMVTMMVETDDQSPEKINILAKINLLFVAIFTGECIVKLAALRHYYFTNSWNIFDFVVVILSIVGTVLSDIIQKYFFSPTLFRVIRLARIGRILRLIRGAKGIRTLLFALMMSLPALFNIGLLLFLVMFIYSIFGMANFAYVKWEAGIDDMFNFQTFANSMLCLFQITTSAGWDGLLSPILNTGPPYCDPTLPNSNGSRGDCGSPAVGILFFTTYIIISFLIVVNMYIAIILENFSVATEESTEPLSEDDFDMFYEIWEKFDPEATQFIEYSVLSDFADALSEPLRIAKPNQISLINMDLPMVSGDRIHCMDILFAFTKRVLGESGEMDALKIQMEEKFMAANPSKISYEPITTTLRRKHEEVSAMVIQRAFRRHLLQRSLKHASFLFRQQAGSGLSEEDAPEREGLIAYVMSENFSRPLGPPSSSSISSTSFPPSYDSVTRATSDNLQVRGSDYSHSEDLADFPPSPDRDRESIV

Turning to `CCC[C@@H]1NC(=O)CNC(=O)[C@H](CC(C)C)NC(=O)[C@@H](NC(=O)[C@@H](N)CC(=O)O)CSSC[C@@H]2NC(=O)[C@@H]3CSSC[C@@H](C(=O)N[C@@H](CCCCN)C(=O)N[C@@H](Cc4ccc(O)cc4)C(=O)N[C@H](C(=O)N[C@@H](Cc4ccccc4)C(N)=O)C(C)C)NC(=O)[C@H](Cc4c[nH]c5ccccc45)NC(=O)[C@H](CCC(=O)O)NC(=O)[C@H](Cc4c[nH]cn4)NC(=O)[C@H]([C@@H](C)O)NC(=O)[C@H](CCCNC(=N)N)NC(=O)[C@H](CO)NC(=O)[C@H](CSSC[C@H](NC(=O)[C@H](CCCCN)NC(=O)[C@H](CCCNC(=N)N)NC(=O)[C@H](CC(C)C)NC1=O)C(=O)N[C@@H]([C@@H](C)CC)C(=O)N1CCC[C@H]1C(=O)N[C@@H](CC(=O)O)C(=O)N[C@@H](CC(N)=O)C(=O)N[C@@H](CC(=O)O)C(=O)N[C@@H](CCCCN)C(=O)N3)NC(=O)[C@H](C(C)C)NC(=O)[C@H](CC(C)C)NC(=O)[C@H](CC(N)=O)NC(=O)[C@@H]1CCCN1C(=O)[C@H](CCCNC(=N)N)NC2=O` [compound 708] (H-DCLG[Nva]LRKCIPDNDKCCRPNLVCSRTHEWCKYVF-NH2; disulfide 2-17, 9-23, 16-30), the IC50 on hNav1.7 is 370 nM; on hNav1.5, 31 µM; at hNav1.3 it was 2800 nM.

Turning to `CC[C@H](C)[C@@H]1NC(=O)[C@@H]2CSSC[C@@H]3NC(=O)[C@H](C(C)C)NC(=O)[C@H](CC(C)C)NC(=O)[C@H](CC(N)=O)NC(=O)[C@@H]4CCCN4C(=O)[C@H](CCCNC(=N)N)NC(=O)[C@H](CSSC[C@H](NC(=O)[C@@H](N)CC(=O)O)C(=O)N[C@@H](CC(C)C)C(=O)NCC(=O)N[C@@H](C(C)C)C(=O)N[C@@H](CC(C)C)C(=O)N[C@@H](CCCNC(=N)N)C(=O)N[C@@H](CCCCN)C(=O)N2)NC(=O)[C@H](CSSC[C@@H](C(=O)N[C@@H](CCCCN)C(=O)N[C@@H](Cc2ccc(O)cc2)C(=O)N[C@H](C(=O)N[C@@H](Cc2ccccc2)C(N)=O)C(C)C)NC(=O)[C@H](Cc2c[nH]c4ccccc24)NC(=O)[C@H](CCC(=O)O)NC(=O)[C@H](Cc2c[nH]cn2)NC(=O)[C@H]([C@@H](C)O)NC(=O)[C@H](CCCNC(=N)N)NC(=O)[C@H](CO)NC3=O)NC(=O)[C@H](CCCCN)NC(=O)[C@H](CC(=O)O)NC(=O)[C@H](CC(N)=O)NC(=O)[C@H](CC(=O)O)NC(=O)[C@@H]2CCCN2C1=O` [compound 709] (H-DCLGVLRKCIPDNDKCCRPNLVCSRTHEWCKYVF-NH2; disulfide 2-17, 9-23, 16-30), the IC50 stood at 740 nM on hNav1.7, 43 µM at hNav1.5 and 4800 nM on hNav1.3.

For `CSCC[C@@H]1NC(=O)[C@H](C(C)C)NC(=O)CNC(=O)[C@H](CC(C)C)NC(=O)[C@@H](NC(=O)[C@@H](N)CC(=O)O)CSSC[C@@H]2NC(=O)[C@@H]3CSSC[C@@H](C(=O)N[C@@H](CCCCN)C(=O)N[C@@H](Cc4ccc(O)cc4)C(=O)N[C@H](C(=O)N[C@@H](Cc4ccccc4)C(N)=O)C(C)C)NC(=O)[C@H](Cc4c[nH]c5ccccc45)NC(=O)[C@H](CCCCN)NC(=O)[C@H](Cc4c[nH]cn4)NC(=O)[C@H]([C@@H](C)O)NC(=O)[C@H](CCCNC(=N)N)NC(=O)[C@H](CO)NC(=O)[C@H](CSSC[C@H](NC(=O)[C@H](CCCCN)NC(=O)[C@H](CCCNC(=N)N)NC1=O)C(=O)N[C@@H](CC(=O)O)C(=O)N1CCC[C@H]1C(=O)N[C@@H](CC(=O)O)C(=O)N[C@@H](CC(N)=O)C(=O)N[C@@H](CC(=O)O)C(=O)N[C@@H](CCCCN)C(=O)N3)NC(=O)[C@H](C(C)C)NC(=O)[C@H](CC(C)C)NC(=O)[C@H](CC(N)=O)NC(=O)[C@@H]1CCCN1C(=O)[C@H](CCCNC(=N)N)NC2=O` [compound 710] (H-DCLGVMRKCDPDNDKCCRPNLVCSRTHKWCKYVF-NH2; disulfide 2-17, 9-23, 16-30), the IC50 on hNav1.7 was 690 nM; at hNav1.5, 35 µM; at hNav1.3 it was 1300 nM.

Consider `CC[C@H](C)[C@@H]1NC(=O)[C@@H]2CSSC[C@@H]3NC(=O)[C@H](C(C)C)NC(=O)[C@H](CC(C)C)NC(=O)[C@H](CC(N)=O)NC(=O)[C@@H]4CCCN4C(=O)[C@H](CCCNC(=N)N)NC(=O)[C@H](CSSC[C@H](NC(=O)[C@@H](N)CC(=O)O)C(=O)N[C@@H](CC(C)C)C(=O)NCC(=O)N[C@@H](C(C)C)C(=O)N[C@@H](CCSC)C(=O)N[C@@H](CCCNC(=N)N)C(=O)N[C@@H](CCCCN)C(=O)N2)NC(=O)[C@H](CSSC[C@@H](C(=O)N[C@@H](CCCCN)C(=O)N[C@@H](Cc2ccc(O)cc2)C(=O)N[C@H](C(=O)N[C@@H](Cc2ccccc2)C(N)=O)C(C)C)NC(=O)[C@H](Cc2c[nH]c4ccccc24)NC(=O)[C@H](CCCCN)NC(=O)[C@H](Cc2c[nH]cn2)NC(=O)[C@H]([C@@H](C)O)NC(=O)[C@H](CCCNC(=N)N)NC(=O)[C@H](CO)NC3=O)NC(=O)[C@H](CCCCN)NC(=O)[C@H](CC(=O)O)NC(=O)[C@H](CC(N)=O)NC(=O)[C@H](CCC(=O)O)NC(=O)[C@@H]2CCCN2C1=O` [compound 711] (H-DCLGVMRKCIPENDKCCRPNLVCSRTHKWCKYVF-NH2; disulfide 2-17, 9-23, 16-30), for which the IC50 at hNav1.7 worked out at 480 nM; on hNav1.5 it was 26 µM; on hNav1.3, 750 nM.

For the compound `CSCC[C@@H]1NC(=O)[C@H](C(C)C)NC(=O)CNC(=O)[C@H](CC(C)C)NC(=O)[C@@H](NC(=O)[C@@H](N)CC(=O)O)CSSC[C@@H]2NC(=O)[C@@H]3CSSC[C@@H](C(=O)N[C@@H](CCCCN)C(=O)N[C@@H](Cc4ccc(O)cc4)C(=O)N[C@H](C(=O)N[C@@H](Cc4ccccc4)C(N)=O)C(C)C)NC(=O)[C@H](Cc4c[nH]c5ccccc45)NC(=O)[C@H](CCCCN)NC(=O)[C@H](Cc4c[nH]cn4)NC(=O)[C@H]([C@@H](C)O)NC(=O)[C@H](CCCNC(=N)N)NC(=O)[C@H](CO)NC(=O)[C@H](CSSC[C@H](NC(=O)[C@H](CCCCN)NC(=O)[C@H](CCCNC(=N)N)NC1=O)C(=O)N[C@@H](CC(=O)O)C(=O)N1CCC[C@H]1C(=O)N[C@@H](CCC(=O)O)C(=O)N[C@@H](CC(N)=O)C(=O)N[C@@H](CC(=O)O)C(=O)N[C@@H](CCCCN)C(=O)N3)NC(=O)[C@H](C(C)C)NC(=O)[C@H](CC(C)C)NC(=O)[C@H](CC(N)=O)NC(=O)[C@@H]1CCCN1C(=O)[C@H](CCCNC(=N)N)NC2=O` [compound 712] (H-DCLGVMRKCDPENDKCCRPNLVCSRTHKWCKYVF-NH2; disulfide 2-17, 9-23, 16-30), the IC50 on hNav1.7 is 460 nM; on hNav1.5 it was 34 µM; on hNav1.3 it was 1700 nM.

On to `CC[C@H](C)[C@@H]1NC(=O)[C@@H]2CSSC[C@@H]3NC(=O)[C@H](C(C)C)NC(=O)[C@H](CC(C)C)NC(=O)[C@H](CC(N)=O)NC(=O)[C@@H]4CCCN4C(=O)[C@H](CCCNC(=N)N)NC(=O)[C@H](CSSC[C@H](NC(=O)[C@@H](N)CC(=O)O)C(=O)N[C@@H](CC(C)C)C(=O)NCC(=O)N[C@@H](C(C)C)C(=O)N[C@@H](CCSC)C(=O)N[C@@H](CCCNC(=N)N)C(=O)N[C@@H](CCCCN)C(=O)N2)NC(=O)[C@H](CSSC[C@@H](C(=O)N[C@@H](CCCCN)C(=O)N[C@@H](Cc2ccc(O)cc2)C(=O)N[C@H](C(=O)N[C@@H](Cc2ccccc2)C(N)=O)C(C)C)NC(=O)[C@H](Cc2c[nH]c4ccccc24)NC(=O)[C@H](CCCCN)NC(=O)[C@H](Cc2c[nH]cn2)NC(=O)[C@H]([C@@H](C)O)NC(=O)[C@H](CCCNC(N)=O)NC(=O)[C@H](CO)NC3=O)NC(=O)[C@H](CCCCN)NC(=O)[C@H](CC(=O)O)NC(=O)[C@H](CC(N)=O)NC(=O)[C@H](CC(=O)O)NC(=O)[C@@H]2CCCN2C1=O` [compound 713] (H-DCLGVMRKCIPDNDKCCRPNLVCS[Cit]THKWCKYVF-NH2; disulfide 2-17, 9-23, 16-30), for which the IC50 turned out to be 830 nM on hNav1.7, 36 µM at hNav1.5 and 4200 nM on hNav1.3.

As for `CSCC[C@@H]1NC(=O)[C@H]([C@@H](C)O)NC(=O)CNC(=O)[C@H](CC(C)C)NC(=O)[C@@H](NC(=O)[C@@H](N)CC(=O)O)CSSC[C@@H]2NC(=O)[C@@H]3CSSC[C@@H](C(=O)N[C@@H](CCCCN)C(=O)N[C@@H](Cc4ccc(O)cc4)C(=O)N[C@H](C(=O)N[C@@H](Cc4ccccc4)C(N)=O)C(C)C)NC(=O)[C@H](Cc4c[nH]c5ccccc45)NC(=O)[C@H](CCCCN)NC(=O)[C@H](Cc4c[nH]cn4)NC(=O)[C@H]([C@@H](C)O)NC(=O)[C@H](CCCNC(=N)N)NC(=O)[C@H](CO)NC(=O)[C@H](CSSC[C@H](NC(=O)[C@H](CCCCN)NC(=O)[C@H](CCCNC(=N)N)NC1=O)C(=O)N[C@@H](CC(=O)O)C(=O)N1CCC[C@H]1C(=O)N[C@@H](CC(=O)O)C(=O)N[C@@H](CC(N)=O)C(=O)N[C@@H](CC(=O)O)C(=O)N[C@@H](CCCCN)C(=O)N3)NC(=O)[C@H](C(C)C)NC(=O)[C@H](CC(C)C)NC(=O)[C@H](CC(N)=O)NC(=O)[C@@H]1CCCN1C(=O)[C@H](CCCNC(=N)N)NC2=O` [compound 714] (H-DCLGTMRKCDPDNDKCCRPNLVCSRTHKWCKYVF-NH2; disulfide 2-17, 9-23, 16-30), the IC50 is 1600 nM at hNav1.7, 48 µM on hNav1.5 and more than 5000 nM on hNav1.3.
